Assay results published in US20250129334A1, “LINEAGE SPECIFICATION DURING STEM CELL TRANSITION” (Amniotics AB, priority 2021, published 2025).

Key:
HE cells [1] = assay: Colony forming unit assay of subcultured HE cells; format: cell-based, human
Procedure: Subcultured HE cells were treated with StemPro Accutase Cell Dissociation Reagent for 2 minutes at 37° C. and dissociated cells were resuspended in 3 ml Methocult H4230 (STEMCELL Technologies, France) (prepared according to manufacturer's instructions, with 20 mL Iscove's Modified Dulbecco's Medium containing 2.5 μg hSCF, 5 μg GM-CSF, 2.5 μg IL-3 and 500 U EPO). Each mixture was divided onto 2 wells of a non-tissue culture treated 6-well plate. Following a 12-day incubation in a humidified incubator at 37° C., 5% CO2, 20% O2, colonies were morphologically distinguished and scored. For globin analysis, colonies in Methocult wells were harvested with PBS, washed thoroughly and frozen in RLT buffer with β-mercaptoethanol. Following RNA extraction and RT (Qiagen), gene expression was assessed with taqman probes by q-PCR. The taqman probes used for this assay are HBA1/2 (Hs00361191_g1), HBE1 (Hs00362216_m1), HBG2/1 (Hs00361131_g1) and KLF1 (Hs00610592_m1).

HE cells [2] = assay: HE subculture with metabolic regulators, flow cytometry of hematopoietic output; format: cell-based, human
Text: The RB9-CB1 human iPSC line (Woods, N.-B. et al. Brief report: efficient generation of hematopoietic precursors and progenitors from human pluripotent stem cell lines. Stem Cells 29, 1158-1164 (2011)) was co-cultured with mouse embryonic fibroblasts (MEFs, Millipore), passaged every six days and processed to form embryoid bodies (EBs) as described previously (Guibentif, C. et al. Single-Cell Analysis Identifies Distinct Stages of Human Endothelial to-Hematopoietic Transition. Cell Reports 19, 10-19 (2017)). The differentiation protocol used in this study was previously described (Ditadi, A. & Sturgeon, C. M. Directed differentiation of definitive hemogenic endothelium and hematopoietic progenitors from human pluripotent stem cells. Methods 101, 65-72 (2016)), however, small modifications were made to induce both primitive and definitive hematopoiesis, as indicated below and in FIG. 6, a. Newly-formed EBs were first kept in SFD medium supplemented with 1 ng/ml Activin A (on days 0-2) and 3 μM CHIR99021 (on day 2 only). At day 3, media was switched to “Day 3-SP34” medium supplemented with 1 ng/ml Activin A (on day 3 only) and 3 μM CHIR99021 (on day 3 only) until day 6. On day 6, media was replaced by “Day 6-SP34” medium, until day 8. In some experiments where indicated, to obtain a higher yield of HSC-like cells, EBs were kept until day 10: in this case, EBs were plated onto Matrigel (8 μg/cm2, Corning)-coated dishes on day 8 and kept until day 10. Media was changed every day, except on days 5 and 7. On day 8 or 10 (as indicated), EBs were singularized with 5-6 rounds of 5-minute incubations with TryPLE Express (Thermo Fisher Scientific). CD34^+ cells were selected using the human CD34 MicroBead kit (Miltenyi Biotec) and stained with CD34-FITC, CD73-PE, VECad-PerCPCy5.5, CD38-PC7, CD184-APC, CD45-AF700, CD43-APCH7, GPA-eF450, CD90-BV605 and the viability marker 7AAD in order to sort HE (CD34^+CD43^−CXCR4^−CD73^−CD90^+VECad^+), EHT (CD34^+CD43^intCXCR4^−CD73^−CD90^+VECad^+) and HSC-like (CD34^+CD43^+CD90^+CD38^−) cells, according to previously described markers (Guibentif, C. et al. Single-Cell Analysis Identifies Distinct Stages of Human Endothelial to-Hematopoietic Transition. Cell Reports 19, 10-19 (2017); Ditadi, A. et al. Human definitive haemogenic endothelium and arterial vascular endothelium represent distinct lineages. Nat Cell Biol 17, 580-591 (2015); and Choi, K.-D. et al. Identification of the Hemogenic Endothelial Progenitor and Its Direct Precursor in Human Pluripotent Stem Cell Differentiation Cultures. Cell Reports 2, 553-567 (2012)).
Sorted HE (40,000), EHT (30,000) and HSC-like (5-20,000) cells were plated onto Matrigel (16 μg/cm2, Corning)-coated 96-well flat bottom plates in HE medium with 1% penicillin-streptomycin and kept in a humidified incubator at 37° C., 5% C02, 4% 02 overnight. The following day (day 0), wells were washed twice with PBS and fresh HE medium was added, together with 2-DG (1 mM), UK5099 (10 μM), DCA (3 mM or 10 mM), TSA (60 nM), TCP (300 nM), ACSS2i (5 μM), C646 (10 μM), CP-640186 (5 μM) or Atorvastatin (0.5 μM), where indicated. Media was changed and drugs were added every 2 days and cells were kept in a humidified incubator at 37° C., 5% CO2, 20% O2 for 6-7 days. Pictures were taken using an Olympus IX70 microscope equipped with a CellSens DP72 camera and CellSens Standard 1.6 software (Olympus). For single cell subcultures, single HE cells were directly sorted with a BD FACSAriaIII onto OP9-DL1 stroma in flat-bottom 96-well plates with 120 μl OP9 medium (OptiMEM medium with Glutamax (Invitrogen) with 10% FCS, 1% penicillin-streptomycin solution (Thermo Fisher Scientific) and 1% 2-mercaptoethanol (Invitrogen)) with SCF, IL-6, IL-11, IGF1 and EPO, and with or without 10 μM UK, or 3 mM or 10 mM DCA. The cells were kept in a humidified incubator at 37° C., 5% CO2, 4% O2 and media was replaced every 4 days. […]

SMILES | ratio of CFU-E colonies to the sum of CFU-G, CFU-GM and CFU-M colonies, lower than control (HE cells [1]; 6 days subculture, DCA 3 mM) | decrease in CD43+GPA+ cells (HE cells [2]; day 6 of HE subculture, DCA 3 mM) | increase in CD43+CD45+ cells / cell output (HE cells [2]; day 6 of subculture, deriving from HE, DCA 3 mM or shRNA) | granulocyte and macrophage colonies (CFU-G, GM and M) (HE cells [1]; 3 or 6 days of UK5099) | ratio of CFU-E colonies to the sum of CFU-G, CFU-GM and CFU-M colonies, higher than control (HE cells [1]; 6 days subculture, UK5099 10 μM) | erythroid colony (CFU-E) formation (HE cells [1]; UK5099 3 or 6 days, DCA 6-day treatment, vs untreated) | EdU incorporation (proliferation) (HE cells [2]; 24 h pulse, days 1 and 2 of subculture, UK5099 10 μM, DCA 3 mM) | frequency of HSC-like cells deriving from HE (HE cells [2]; 3 days subculture, UK5099 10 μM, DCA 3 mM) | proliferation of CD45+ cells deriving from HE (HE cells [2]; CTV, UK5099 10 μM, DCA 3 mM) | proliferation of the GPA+ population deriving from HE (HE cells [2]; CTV, day 3, UK5099 10 μM, DCA 3 mM) | CD43+GPA+ cell output (HE cells [2]; day 3 of HE subculture, UK5099 10 μM, 1-AA 4 mM, DCA 3 mM, vs control) | levels of total CD43+ cells (HE cells [2]; day 6, UK5099 10 μM, 1-AA 4 mM) | decrease in CD43+CD45+ population (HE cells [2]; day 6, deriving from HE, UK5099 10 μM)
O=C(O)C(Cl)Cl [DCA, dichloroacetate] | more than 3 fold | 50% | 80% | – | – | – | – | – | – | – | – | – | –
N#CC(=Cc1cn(-c2ccccc2)c2ccccc12)C(=O)O [UK5099, 2-Cyano-3-(1-phenyl-1H-indol-3-yl)-2-propenoic acid] | – | – | – | decreased | 20 fold | significantly increased | no differences in proliferation | did not have an effect | did not have an effect | did not observe any differences | striking increase | unchanged | 2 fold
